Patent US4619943A, “Neolignans of Saururus cernuus L and analogues thereof” (priority 1984, dated 1986)
In brackets after ≈: the same amount, converted by molar mass. Several values for one entry are separate records, joined by “and”; a condition that tells them apart may be missing. Equal entries are not always repeated.

Assays:
Assay type in all cases: in vivo
[1] = tested on: mosquito larvae (Aedes aegypti); test: Mosquito larvae test; conditions: 24 hours
Description: Similarly, in a test using mosquito larvae (Aedes aegypti) as the insect test species, SC-7 gave 15% mortality and SC-8 gave 93% mortality at an application rate of 100 ppm. In this test, one ml of a solution of 1000 ppm of the test compound in 10% acetone - 90% water was added to 9 ml of water in a culture tube. Ten mosquito larvae were added, and mortality readings were taken 24 hours later.

[2] = tested on: southern armyworm (Spodoptera eridania); test: Insecticidal activity against southern armyworm; conditions: both application rates, 1000 and 500 ppm, 14 days
Description: (§1) The present compounds were tested for insecticidal activity against cabbage looper (Trichoplusia ni [Hubner]), and southern armyworm (Spodoptera eridania) at application rates of 1000 and 500 ppm. The tests were conducted in petri dishes containing a solid food source in which the test compounds had been incorporated. The petri dishes containing the treated food source were infested with second instar larvae of southern armyworms or cabbage loopers. Ten larvae per replicate and two replicates per test rate were used. Mortality data were taken 14 days after infestation.

mice = test: Neuroleptic / CNS-depressant activity in experimental animals (general statements)
Pimephales promelas = test: Acute toxicity to fish; conditions: for % Mortality, Avg / % Mortality, single replicates (1 to 6): 2 hours
Description: Many compounds having insecticidal activity also show toxicity to fish. For example, rotenoids, pyrethrins, and DDT have significant toxicity to fish. For this reason, fish have been used frequently to indicate potential insecticidal activity. The present compounds were tested for acute toxicity to fish by the method described in "Methods For Acute Toxicity Tests With Fish, Macro-Invertebrates and Amphibians", EPA 660/3-75-009, Committee on Methods for Toxicity Tests With Aquatic Organisms, Environmental Protection Agency, Corvallis, OR, 1975.
The fish, commonly known as Missouri minnows or fat heads (Pimephales promelas, family, cyprinidae) were purchased from a local hatchery and equilibrated to the new surroundings for 24 hours. They were kept in deionized water, previously adjusted to pH 6.5 with phosphate buffer at 23° C. Sufficient oxygen was provided, and the fish were deprived of food during the test period.
Groups of six fish were placed in containers with different concentrations of the test compound. The percent mortality was recorded every 30 minutes. The LC 50 values (mg/L) and 95% confidence limits were determined from the percent mortality data after 2 hours of exposure from 6 separate replicates using the method of Lichfield and Wiloxon [(J. Pharmacology and Exp. Therepeutics, 96, 99-113 (1949))].

[3] = tested on: cabbage looper (Trichoplusia ni [Hubner]); test: Insecticidal activity against cabbage looper; conditions: both application rates, 1000 and 500 ppm, 14 days
Description: as §1

[4] = Antiamphetamine activity (method of Weissman et al., mice instead of rats); conditions: mice
Description: Neuroleptic drugs are said to bind to postsynaptic dopamine receptors in the brain, thereby blocking dopaminergic transmission. […] Based on this, an assay for possible neuroleptic activity was developed and is commonly used. […] 151, 339 (1966)), except that mice were used instead of rats. A comparison under the same conditions was also made of the antiamphetamine activity of a standard neuroleptic drug, haloperidol, which gave an ED50 value of 0.5 mg/Kg (Table 2).

Structure (SMILES): COc1ccc(C(O)C(C)Oc2ccc([C@@H]3O[C@@H](c4ccc(OC(C)C(O)c5ccc6c(c5)OCO6)c(OC)c4)[C@@H](C)[C@@H]3C)cc2OC)cc1OC (stereo partly drawn) [SC-7, 2α-[3-methoxy-4-{threo-3-hydroxy-3-(3,4-dimethoxyphenyl)}isopropoxyphenyl]-5β-[3-methoxy-4-{threo-3-hydroxy-3-(3,4-methylenedioxyphenyl)}isopropoxyphenyl]-3α,4β-dimethyltetrahydrofuran]
- mortality at 100 ppm [1]: 15%
- insecticidal activity, southern armyworm [2]: essentially inactive
- CNS-depressant activity (mice; experimental animals / mice): activity similar to SC-8
- neuroleptic activity (mice; mouse, in vivo): neuroleptically active
- % Mortality, Avg (Pimephales promelas; 0.03 mg/L): 6%
- % Mortality, single replicates (1 to 6) (Pimephales promelas; 0.03 mg/L, 120 min): 0% (4×) and 17% (2×)
- % Mortality, Avg (Pimephales promelas; 0.06 mg/L): 38%
- % Mortality, single replicates (1 to 6) (Pimephales promelas; 0.06 mg/L, 120 min): 33% (4×) and 17% (2×)
- % Mortality, Avg (Pimephales promelas; 0.09 mg/L): 41%
- % Mortality, single replicates (1 to 6) (Pimephales promelas; 0.09 mg/L, 120 min): 50% and 33% (5×)
- % Mortality, Avg (Pimephales promelas; 0.13 mg/L): 58%
- % Mortality, single replicates (1 to 6) (Pimephales promelas; 0.13 mg/L, 120 min): 83% and 67% and 50% (4×)
- % Mortality, Avg (Pimephales promelas; 0.25 mg/L): 86%
- % Mortality, single replicates (1 to 6) (Pimephales promelas; 0.25 mg/L, 120 min): 100% (2×) and 83% (3×) and 67%
- % Mortality, Avg (Pimephales promelas; 0.5 mg/L): 100%
- % Mortality, single replicates (1 to 6) (Pimephales promelas; 0.5 mg/L): 100%
- LC50 (Pimephales promelas; 2 hours of exposure, pH 6.5, 23° C): 0.115 µg/mL (≈ 0.16 µM)
- insecticidal activity, cabbage looper [3]: essentially inactive

Structure (SMILES): O=C(CCCN1CCC(O)(c2ccc(Cl)cc2)CC1)c1ccc(F)cc1 [Haloperidol, haloperidol, reference compound]
- ED50 ([4]; Mus musculus, inhibition of amphetamine-induced agitation, stereotypy, body-hydration): 0.5 mg/kg
- % Inhibition (antiamphetamine activity) ([4]; dose 0.05 mg/Kg): 10%
- % Inhibition (antiamphetamine activity) ([4]; dose 0.1 mg/Kg): 20%
- % Inhibition (antiamphetamine activity) ([4]; dose 0.5 mg/Kg): 40%
- % Inhibition (antiamphetamine activity) ([4]; dose 0.75 mg/Kg): 50%
- % Inhibition (antiamphetamine activity) ([4]; dose 1.0 mg/Kg): 60%
- % Inhibition (antiamphetamine activity) ([4]; dose 1.3 mg/Kg): 70%
- % Inhibition (antiamphetamine activity) ([4]; dose 1.8 mg/Kg): 90%
